Experimental data from patent US12570638B2, “Fused imidazole derivatives as AHR antagonists” (Sail Biomedicines, Inc., priority 2020, dated 2026).

Tests used:
AHR = target: T1, AHR (Homo sapiens, UniProt P35869); assay: DRE-Luciferase Reporter Assay (HepG2 AhR-Lucia reporter cells); assay type: cell-based; conditions: luciferase activity with AHR activating ligand at EC50, read-out: HepG2-Luc IC50
T1 construct: other cell line with a DRE-luciferase reporter stably transfected; endogenous in cells; host or cells: Human HepG2 liver carcinoma AhR-Lucia reporter cells
T1 sequence (P35869 11-848): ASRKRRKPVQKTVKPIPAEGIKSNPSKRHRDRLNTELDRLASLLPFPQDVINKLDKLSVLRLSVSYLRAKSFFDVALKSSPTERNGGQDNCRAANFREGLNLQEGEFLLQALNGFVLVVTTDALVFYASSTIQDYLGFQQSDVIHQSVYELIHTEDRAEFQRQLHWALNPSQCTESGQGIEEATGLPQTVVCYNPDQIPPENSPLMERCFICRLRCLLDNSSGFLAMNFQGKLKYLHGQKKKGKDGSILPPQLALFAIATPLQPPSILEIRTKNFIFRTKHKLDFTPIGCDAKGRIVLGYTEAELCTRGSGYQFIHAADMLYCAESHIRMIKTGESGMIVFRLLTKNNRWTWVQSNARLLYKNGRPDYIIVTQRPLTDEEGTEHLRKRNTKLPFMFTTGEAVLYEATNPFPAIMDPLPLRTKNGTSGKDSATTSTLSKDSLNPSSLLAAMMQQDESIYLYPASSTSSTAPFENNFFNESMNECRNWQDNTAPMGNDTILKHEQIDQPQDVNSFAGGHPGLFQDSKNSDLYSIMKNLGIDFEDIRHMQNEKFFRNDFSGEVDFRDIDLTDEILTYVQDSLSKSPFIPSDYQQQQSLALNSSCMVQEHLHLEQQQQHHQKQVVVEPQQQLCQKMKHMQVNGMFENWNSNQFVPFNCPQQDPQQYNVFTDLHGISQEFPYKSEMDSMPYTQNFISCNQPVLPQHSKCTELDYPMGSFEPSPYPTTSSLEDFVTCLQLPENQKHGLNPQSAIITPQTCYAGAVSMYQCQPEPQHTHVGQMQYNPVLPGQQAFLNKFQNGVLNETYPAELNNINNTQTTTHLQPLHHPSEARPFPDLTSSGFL
Source text: AHR binds to Dioxin Responsive Elements (DRE) upstream of genes that it activates. One measure of AHR activity is activation of a reporter gene, such as luciferase, downstream of one or multiple DRE elements. Luciferase activity will reflect activation and inhibition of AHR in the cells expressing his reporter. 20000 Human HepG2 liver carcinoma—AhR-Lucia reporter cells or Human HT29 colon adenocarcinoma—AhR reporter cells or other cell line with a DRE-luciferase reporter stably transfected were plated in Eagle's Minimal Essential Medium, 10% heat-inactivated FBS, 1× non-essential amino acids Pen-Strep (10,000 U/mL) and Normocin (100 ug/mL) in plates (96-well, 384-well or other plates) and incubated overnight at 37° C. in a CO2 incubator and treated with and without AhR antagonists at a log dilution starting at 100 uM.
After 1 hr that cells were plated an AHR activating ligand, such as TCDD, kynurenine, ITE (2-(1H-indole-3-ylcarbonyl)-4-thiazolecarboxylic methyl ester), VAF347, BNF (beta-naphthoflavone), FICZ (6-formylindolo(3,2-b) carbazole) or other AHR ligands at their specific EC50 concentration, were added to the cells with or without AHR antagonist.
Cells were incubated for 24 or 48 hours or another time point and then, supernatant was analyzed for determination of luciferase activity as a read-out of the AHR activation or inhibition. Luciferase was measured with the commercial kit QUANTI-Luc™ assay solution kit from Invivogen following the manufacturer's instructions.
The level of luciferase with only agonist ligand added was the maximum signal while the luciferase with […] was the minimum signal. IC50 values were determined as the concentration which inhibits half of the luciferase activity.

[1] = Hepatocyte Stability Assay, rat; assay type: in vitro ADME; conditions: cryopreserved hepatocytes, read-out: Rat hepatocyte clearance
Protocol: Preparation of working solutions: 10 mM stock solutions of test compound and positive control were prepared in DMSO. In separate conical tubes, the 10 mM solution of test compound and the positive control were diluted to 100 μM by combining 198 μL of 50% acetonitrile/50% water and 2 μL of 10 mM stock.
Preparation of Hepatocytes: Incubation medium (William's E Medium supplemented with GlutaMAX) and hepatocyte thawing medium were placed in a 37° C. water bath and allowed warming for at least 15 minutes prior to use. A vial of cryopreserved hepatocytes was transferred from storage, ensuring that vials remained at cryogenic temperatures until thawing process ensued. Cells were thawed by placing the vial in a 37° C. water bath and gently shaking the vials for 2 minutes. […] Using an AO/PI Staining, cells were counted and the viable cell density was determined. Cells with poor viability (<75% viability) were determined to be not acceptable for use. […]
Data Analysis: All calculations were carried out using Microsoft Excel. Peak areas were determined from extracted ion chromatograms. In vitro half-life (t1/2) of parent compound was determined by regression analysis of the percent parent disappearance vs. time curve.
The in vitro half-life (in vitro t1/2) was determined from the slope value: in vitro t1/2=0.693/k […]

SMILES: Cn1nccc1C(=O)Nc1ccc2nc(-c3ccccc3C(F)(F)F)[nH]c2c1 [A, 1-methyl-N-(2-(2-(trifluoromethyl)phenyl)-1H-benzo[d]imidazol-6-yl)-1H-pyrazole-5-carboxamide]
- IC50 (AHR): 100 to 500 nM

SMILES: Cn1ncnc1C(=O)Nc1ccc2nc(-c3ccccc3C(F)(F)F)[nH]c2c1 [Compound H, 1-methyl-N-(2-(2-(trifluoromethyl)phenyl)-1H-benzo[d]imidazol-6-yl)-1H-1,2,4-triazole-5-carboxamide]
- IC50 (AHR): < 100 nM
- CLint scaled at 1 μM [1]: < 20 mL/min/kg
